# Experimental data from patent publication US9758527B2, “Cyclohexene derivative, preparation method therefor, and pharmaceutical composition for preventing or treating metabolic diseases, containing same as active ingredient” (HYUNDAI PHARM CO., LTD., priority 2014, dated 2017).
# Where two headings read alike, the source gives them in different places.
# Biological target: T1, G protein-coupled receptor 119 (GPR-119) (Mesocricetus auratus, UniProt A0A1U8CD06)
# T1 construct: hamster-derived β-cells containing G protein-coupled receptor 119 (GPR-119), HIT-T15 cells; host or cells: HIT-T15 (hamster pancreatic β-cells)
# T1 sequence (A0A1U8CD06 1-334): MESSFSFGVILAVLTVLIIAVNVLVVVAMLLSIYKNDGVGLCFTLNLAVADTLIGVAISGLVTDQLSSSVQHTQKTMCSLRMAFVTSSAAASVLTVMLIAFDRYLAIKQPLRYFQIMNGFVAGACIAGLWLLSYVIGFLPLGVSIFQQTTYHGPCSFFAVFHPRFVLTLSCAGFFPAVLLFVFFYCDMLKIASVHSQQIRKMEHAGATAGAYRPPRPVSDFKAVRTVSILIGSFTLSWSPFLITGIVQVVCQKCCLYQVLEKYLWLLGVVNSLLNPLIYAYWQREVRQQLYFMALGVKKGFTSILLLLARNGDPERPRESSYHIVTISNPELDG
# Experiment: Evaluation of cAMP activity in HIT-T15 cells (HTRF cAMP dynamic kit)
# Format: cell-based, hamster
# Settings: cAMP activation
# How it was run: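 HIT-T15 cells, 60,000/well, treated next day with compound at six concentrations ([…]) for 1 h at 37° C. Lysate cAMP quantified by HTRF competitive immunoassay (D2-cAMP, cryptate anti-cAMP); activity taken as change in FRET signal relative to DMSO.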
# [1] = 1 h at 37° C., six concentrations, read-out: EC50
EC50 [1] [nM],EC50 (read-out: EC50 value) [nM],Structure (SMILES)
70,–,"CC(C)c1noc(N2CCC(COc3ccc(C4=CCC(C(=O)NCC(=O)N5CCOCC5)CC4)cc3F)CC2)n1 (stereo not drawn) [Example 112, 4-(3-fluoro-4-((1-(3-isopropyl-1,2,4-oxadiazol-5-yl)piperidin-4-yl)methoxy)phenyl)-N-(2-morpholino-2-oxoethyl)cyclohex-3-enecarboxamide]"
68,–,"CC(C)c1noc(N2CCC(COc3ccc(C4=CCC(C(=O)NCCC(=O)N5CCOCC5)CC4)cc3F)CC2)n1 (stereo not drawn) [Example 113, 4-(3-fluoro-4-((1-(3-isopropyl-1,2,4-oxadiazol-5-yl)piperidin-4-yl)methoxy)phenyl)-N-(3-morpholino-3-oxopropyl)cyclohex-3-enecarboxamide]"
14,≤ 50,"CC(C)(C)OC(=O)N1CCC(COc2ccc(C3=CCC(C(=O)N4CCC[C@H]4C#N)CC3)cc2F)CC1 (stereo partly drawn) [Example 114, tert-butyl 4-((4-(4-((S)-2-cyanopyrrolidine-1-carbonyl)cyclohex-1-enyl)-2-fluorophenoxy)methyl)piperidine-1-carboxylate]"
15,≤ 50,"CC(C)c1noc(N2CCC(COc3ccc(C4=CCC(C(=O)N5CCC[C@H]5C#N)CC4)cc3F)CC2)n1 (stereo partly drawn) [Example 115, (2S)-1-(4-(3-fluoro-4-((1-(3-isopropyl-1,2,4-oxadiazol-5-yl)piperidin-4-yl)methoxy)phenyl)cyclohex-3-enecarbonyl)pyrrolidine-2-carbonitrile]"
28,≤ 50,"CC(C)c1noc(N2CCC(COc3ccc(C4=CCC(C(=O)N5CCC[C@@H]5C(N)=O)CC4)cc3F)CC2)n1 (stereo partly drawn) [Example 116, (2R)-1-(4-(3-fluoro-4-((1-(3-isopropyl-1,2,4-oxadiazol-5-yl)piperidin-4-yl)methoxy)phenyl)cyclohex-3-enecarbonyl)pyrrolidine-2-carboxamide]"
11,≤ 50,"CC(C)c1noc(N2CCC(COc3ccc(C4=CCC(C(=O)N5CCC[C@@H]5C#N)CC4)cc3F)CC2)n1 (stereo partly drawn) [Example 117, (2R)-1-(4-(3-fluoro-4-((1-(3-isopropyl-1,2,4-oxadiazol-5-yl)piperidin-4-yl)methoxy)phenyl)cyclohex-3-enecarbonyl)pyrrolidine-2-carbonitrile]"
80,–,"CC(C)c1noc(N2CCC(COc3ccc(C4=CCC(C(=O)NCCO)CC4)cc3F)CC2)n1 (stereo not drawn) [Example 120, 4-(3-fluoro-4-((1-(3-isopropyl-1,2,4-oxadiazol-5-yl)piperidin-4-yl)methoxy)phenyl)-N-(2-hydroxyethyl)cyclohex-3-enecarboxamide]"
500,–,"CC(C)c1noc(N2CCC(COc3ccc(C4=CCC(C(=O)NCC(=O)N5CCC[C@@H]5C(N)=O)CC4)cc3F)CC2)n1 (stereo partly drawn) [Example 121, (2R)-1-(2-(4-(3-fluoro-4-((1-(3-isopropyl-1,2,4-oxadiazol-5-yl)piperidin-4-yl)methoxy)phenyl)cyclohex-3-enecarboxamido)acetyl)pyrrolidine-2-carboxamide]"
130,–,"CC(C)c1noc(N2CCC(COc3ccc(C4=CCC(C(=O)NCC(=O)N5CCC[C@@H]5C#N)CC4)cc3F)CC2)n1 (stereo partly drawn) [Example 122, N-(2-((R)-2-cyanopyrrolidin-1-yl)-2-oxoethyl)-4-(3-fluoro-4-((1-(3-isopropyl-1,2,4-oxadiazol-5-yl)piperidin-4-yl)methoxy)phenyl)cyclohex-3-enecarboxamide]"
35,≤ 50,"CCc1cnc(N2CCC(COc3ccc(C4=CCC(C(=O)N5CCN(C6CC6)CC5)CC4)cc3)CC2)nc1 (stereo not drawn) [Example 123, (4-cyclopropylpiperazin-1-yl)(4-(4-((1-(5-ethylpyrimidin-2-yl)piperidin-4-yl)methoxy)phenyl)cyclohex-3-enyl)methanone]"
100,–,"CCc1cnc(N2CCC(COc3ccc(C4=CCC(C(=O)N5CCN(CC6CC6)CC5)CC4)cc3)CC2)nc1 (stereo not drawn) [Example 124, (4-(cyclopropylmethyl)piperazin-1-yl)(4-(4-((1-(5-ethylpyrimidin-2-yl)piperidin-4-yl)methoxy)phenyl)cyclohex-3-enyl)methanone]"
70,–,"C[C@H](O)CNC(=O)C1CC=C(c2ccc(OCC3CCN(C(=O)OC(C)(C)C)CC3)cc2F)CC1 (stereo partly drawn) [Example 125, tert-butyl 4-((3-fluoro-4-(4-((S)-2-hydroxypropylcarbamoyl)cyclohex-1-enyl)phenoxy)methyl)piperidine-1-carboxylate]"
130,–,"C[C@@H](O)CNC(=O)C1CC=C(c2ccc(OCC3CCN(C(=O)OC(C)(C)C)CC3)cc2F)CC1 (stereo partly drawn) [Example 126, tert-butyl 4-((3-fluoro-4-(4-((R)-2-hydroxypropylcarbamoyl)cyclohex-1-enyl)phenoxy)methyl)piperidine-1-carboxylate]"
83,–,"CCc1cnc(N2CCC(COc3ccc(C4=CCC(C(=O)N[C@@H](C)CO)CC4)cc3)CC2)nc1 (stereo partly drawn) [Example 127, 4-(4-((1-(5-ethylpyrimidin-2-yl)piperidin-4-yl)methoxy)phenyl)-N-((S)-1-hydroxypropan-2-yl)cyclohex-3-enecarboxamide]"
200,–,"CCc1cnc(N2CCC(COc3ccc(C4=CCC(C(=O)NC[C@H](O)CO)CC4)cc3)CC2)nc1 (stereo partly drawn) [Example 128, N-((S)-2,3-dihydroxypropyl)-4-(4-((1-(5-ethylpyrimidin-2-yl)piperidin-4-yl)methoxy)phenyl)cyclohex-3-enecarboxamide]"
140,–,"C[C@H](CO)NC(=O)C1CC=C(c2ccc(OCC3CCN(C(=O)OC(C)(C)C)CC3)cc2F)CC1 (stereo partly drawn) [Example 129, tert-butyl 4-((3-fluoro-4-(4-((R)-1-hydroxypropan-2-ylcarbamoyl)cyclohex-1-enyl)phenoxy)methyl)piperidine-1-carboxylate]"
90,–,"C[C@@H](CO)NC(=O)C1CC=C(c2ccc(OCC3CCN(C(=O)OC(C)(C)C)CC3)cc2F)CC1 (stereo partly drawn) [Example 130, tert-butyl 4-((3-fluoro-4-(4-((S)-1-hydroxypropan-2-ylcarbamoyl)cyclohex-1-enyl)phenoxy)methyl)piperidine-1-carboxylate]"
150,–,"CC(C)(C)OC(=O)N1CCC(COc2ccc(C3=CCC(C(=O)NC[C@@H](O)CO)CC3)c(F)c2)CC1 (stereo partly drawn) [Example 131, tert-butyl 4-((4-(4-((R)-2,3-dihydroxypropylcarbamoyl)cyclohex-1-enyl)-3-fluorophenoxy)methyl)piperidine-1-carboxylate]"
210,–,"CC(C)(C)OC(=O)N1CCC(COc2ccc(C3=CCC(C(=O)NC[C@H](O)CO)CC3)c(F)c2)CC1 (stereo partly drawn) [Example 132, tert-butyl 4-((4-(4-((S)-2,3-dihydroxypropylcarbamoyl)cyclohex-1-enyl)-3-fluorophenoxy)methyl)piperidine-1-carboxylate]"
400,–,"CC(C)c1noc(N2CCC(COc3ccc(C4=CCC(C(=O)NCC(=O)N5CCC[C@H]5C(N)=O)CC4)cc3F)CC2)n1 (stereo partly drawn) [Example 133, (2S)-1-(2-(4-(3-fluoro-4-((1-(3-isopropyl-1,2,4-oxadiazol-5-yl)piperidin-4-yl)methoxy)phenyl)cyclohex-3-enecarboxamido)acetyl)pyrrolidine-2-carboxamide]"
350,–,"CC(C)c1noc(N2CCC(COc3ccc(C4=CCC(C(=O)NCCC(=O)N5CCC[C@H]5C(N)=O)CC4)cc3F)CC2)n1 (stereo partly drawn) [Example 134, (2S)-1-(3-(4-(3-fluoro-4-((1-(3-isopropyl-1,2,4-oxadiazol-5-yl)piperidin-4-yl)methoxy)phenyl)cyclohex-3-enecarboxamido)propanoyl)pyrrolidine-2-carboxamide]"
30,≤ 50,"CCc1cnc(N2CCC(COc3ccc(C4=CCC(C(=O)N5CC[C@H](O)C5)CC4)cc3)CC2)nc1 (stereo partly drawn) [Example 135, (4-(4-((1-(5-ethylpyrimidin-2-yl)piperidin-4-yl)methoxy)phenyl)cyclohex-3-enyl)((S)-3-hydroxypyrrolidin-1-yl)methanone]"
62,–,"CCc1cnc(N2CCC(COc3ccc(C4=CCC(C(=O)NC[C@H](C)O)CC4)cc3)CC2)nc1 (stereo partly drawn) [Example 136, 4-(4-((1-(5-ethylpyrimidin-2-yl)piperidin-4-yl)methoxy)phenyl)-N-((S)-2-hydroxypropyl)cyclohex-3-enecarboxamide]"
60,–,"CC(C)(C)OC(=O)N1CCC(COc2ccc(C3=CCC(C(=O)NC4CC4)CC3)c(F)c2)CC1 (stereo not drawn) [Example 137, tert-butyl 4-((4-(4-(cyclopropylcarbamoyl)cyclohex-1-enyl)-3-fluorophenoxy)methyl)piperidine-1-carboxylate]"
100,–,"CC(C)(C)OC(=O)N1CCC(COc2ccc(C3=CCC(C(=O)NCCF)CC3)c(F)c2)CC1 (stereo not drawn) [Example 138, tert-butyl 4-((3-fluoro-4-(4-(2-fluoroethylcarbamoyl)cyclohex-1-enyl)phenoxy)methyl)piperidine-1-carboxylate]"
120,–,"CC(C)c1noc(N2CCC(COc3ccc(C4=CCC(C(=O)NCCC(=O)N5CCC[C@H]5C#N)CC4)cc3F)CC2)n1 (stereo partly drawn) [Example 140, N-(3-((S)-2-cyanopyrrolidin-1-yl)-3-oxopropyl)-4-(3-fluoro-4-((1-(3-isopropyl-1,2,4-oxadiazol-5-yl)piperidin-4-yl)methoxy)phenyl)cyclohex-3-enecarboxamide]"
75,–,"CC(C)(C)OC(=O)N1CCC(COc2ccc(C3=CCC(C(=O)NCC(F)F)CC3)c(F)c2)CC1 (stereo not drawn) [Example 141, tert-butyl 4-((4-(4-(2,2-difluoroethylcarbamoyl)cyclohex-1-enyl)-3-fluorophenoxy)methyl)piperidine-1-carboxylate]"
